Test results as given in US20260124324A1, “PHOTOCLICK CHEMISTRY OF SILK FOR TEMPORARY UV TATTOOS” (Trustees of Tufts College, priority 2023, published 2026).

How the values were obtained:
[1] = test system: human dermal fibroblasts (hDFs); test: 2D cell morphology by bright field transmission microscopy; format: cell-based; conditions: positive control, 1% in media, 24 hour incubation
Description: Images were taken with a Motic AE2000 inverted microscope in bright field transmission through the bottom of transparent 96 well plates. Images from 2D cell culture were processed in GNU Image Manipulation Program V 2.10.12. Contrast was enhanced by changing light and dark levels to maximize the dynamic range of the image. The illumination artifacts were removed by creating a duplicate image on a separate layer and blurring it with a Gaussian blur strength 12.0. This layer was placed below the normal layer, and the two layers were mixed in the “Grain Extract” mixing mode. This process inverts the colors, so the color was inverted again to restore the original orientation.
Cellular morphology is an independent method of assessing cellular health. When healthy, cells like hDFs will adhere to flat plates in 2D culture and multiply rapidly, until they form a confluent layer. The pressure from surrounding cells tends to cause the cells to adopt an elongated and tubular morphology, often aligned with their neighboring cells. When cells are damaged, they will often suffer cytoskeletal damage and will lose their elongated morphology. Dead HDFs will be at the extreme end of this trend, appearing as very small spheres, devoid of cytoskeleton entirely.

[2] = test system: human dermal fibroblasts (hDFs); test: Fluorescence microscopy of tattooed 3D skin-simulating scaffolds; format: cell-based; conditions: 7 days after tattooing, phalloidin and DAPI staining
Description: Cell-laden 3D scaffolds were fixed in a 2% formalin solution in PBS for 2 hours with gentle oscillatory mixing. All subsequent washing steps were performed for 30 minutes with oscillatory mixing with the indicated solution. The formalin solution was then decanted, and the scaffolds were washed 3 times with DI water. The cell membranes were permeabilized by washing the scaffolds with acetone solution (50% v/v acetone in 1×PBS) for 30 minutes. The samples were then washed 3 times with PBS-T (1×PBS, […]), then blocked with 1 mg/mL BSA in PBS-T (1×PBS, 0.1% Triton X-100). Actin was stained with phalloidin-488 (Invitrogen A12379) for 1 hour, then washed 3 times with 1×PBS. Nuclei were stained with DAPI (Invitrogen D3571) for 30 minutes then washed with PBS 3 times. Scaffolds were stored in 1×PBS at 4 C until imaged.
Fixed and stained samples as well as tattooed imaging phantoms were imaged with a Keyence BZ-X710 all-in-one fluorescence microscope. The DAPI filter channel (ex/em 355/450) was used to image both the DAPI stain, fluorescent pyrazoline-laden microparticles, and aqueous SilMA-pyrazoline tattoo inks. The GFP channel (ex/em 488/510) was used to image the phalloidin-stained actin.
Silk fibroin solution (5% w/w) was pipetted into a 24 well plate (1.5 mL per well) and frozen at −20 C. […]

[3] = test system: human dermal fibroblasts (hDFs); test: 2D metabolic toxicity assay (MTT); conditions: positive control, 1% in media, 24 hours

Substance: Triton X-100
- cellular morphology [1]: small hard spheres indicative of dead cells
- cell morphology / localized cytotoxicity in 3D scaffold [2]: only background fluorescence
- metabolic capacity (MTT) [3]: completely destroyed the metabolic capacity of the cells
